These are literature values, as cited in patent US10543256B2, “Stable pharmaceutical formulation comprising a reconstituted pulmonary surfactant composition” (CHIESI FARMACEUTICI S.P.A., priority 2016, dated 2020).

The conditions of this data set: at 25° C.

The pKa is the negative logarithm of the acid dissociation constant. As to `Cl.NC(CO)(CO)CO` [TRIS, Tris(hydroxymethyl)aminomethane hydrochloride], the pKa is 8.06.
